The text below walks through data of patent US9556157B2, “Enhancer of zeste homolog 2 inhibitors” (GlaxoSmithKline Intellectual Property (No.2) Limited, priority 2013, dated 2017).

In general, IC50 refers to the midpoint of a concentration-inhibition curve. Low readings indicate inhibition by little substance, high ones a need for much substance.

The target in test [1] is T1, EZH2 within the PRC2 complex (Homo sapiens (Human), UniProt Q15910). The test can be described thus: EZH2 methyltransferase SPA, mononucleosome substrate (Assay Protocol 1). Format: biochemical. The settings on record: mononucleosomes from HeLa cells, 3H-SAM. As to the method:
Compounds contained herein were evaluated for their ability to inhibit the methyltransferase activity of EZH2 within the PRC2 complex. Human PRC2 complex was prepared by co-expressing each of the 5 member proteins (FLAG-EZH2, EED, SUZ12, RbAp48, AEBP2) in Sf9 cells followed by co-purification. Enzyme activity was measured in a scintillation proximity assay (SPA) where a tritiated methyl group is transferred from 3H-SAM to a lysine residue on Histone H3 of a mononucleosome, purified from HeLa cells. Mononucleosomes were captured on SPA beads and the resulting signal is read on a ViewLux plate reader.
(§1) Part A. Compound Preparation
• 1. Prepare 10 mM stock of compounds from solid in 100% DMSO. • 2. Set up an 11-point serial dilution (1:3 dilution, top concentration 10 mM) in 100% DMSO for each test compound in a 384 well plate leaving columns 6 and 18 for DMSO controls. • 3. Dispense 100 nL of compound from the dilution plate into reaction plates (Grenier Bio-One, 384-well, Cat#784075). Part B. Reagent Preparation Prepare the following solutions: • 1. 50 mM Tris-HCl, pH 8: Per 1 L of base buffer, combine 1 M Tris-HCl, pH 8 (50 mL) and distilled water (950 mL). • 2. 1× Assay Buffer: Per 10 mL of 1× Assay Buffer, combine 50 mM Tris-HCl, pH 8 (9958 uL), 1 M MgCl2 (20 uL), 2 M DTT (20 uL), and 10% Tween-20 (2 uL) to provide a final concentration of 50 mM Tris-HCl, pH 8, 2 mM MgCl2, 4 mM DTT, 0.002% Tween-20. • 3. 2× Enzyme Solution: Per 10 mL of 2× Enzyme Solution, combine 1× Assay Buffer and PRC2 complex to provide a final enzyme concentration of 10 nM. • 4. SPA Bead Suspension: Per 1 mL of SPA Bead Suspension, combine PS-PEI coated LEADSeeker beads (40 mg) and H2O (1 mL) to provide a final concentration of 40 mg/mL. • 5. […] Read plates • 1. Read the assay plates on the Viewlux Plate Reader utilizing the 613 nm emission filter with a 300 s read time. […]
(§2) Percent inhibition was calculated relative to the DMSO control for each compound concentration and the resulting values were fit using standard IC50 fitting parameters within the ABASE data fitting software package.

Test [2] addresses T1, EZH2 within the PRC2 complex. Briefly: EZH2 methyltransferase SPA, biotinylated histone H3K27 peptide substrate (Assay Protocol 2). The test is classed as biochemical. The settings on record: 3H-SAM. Here is the method:
Compounds contained herein were evaluated for their ability to inhibit the methyltransferase activity of EZH2 within the PRC2 complex. Human PRC2 complex was prepared by co-expressing each of the 5 member proteins (FLAG-EZH2, EED, SUZ12, RbAp48, AEBP2) in Sf9 cells followed by co-purification. Enzyme activity was measured in a scintillation proximity assay (SPA) where a tritiated methyl group is transferred from 3H-SAM to a lysine residue on a biotinylated, unmethylated peptide substrate derived from histone H3. The peptides were captured on streptavidin-coated SPA beads and the resulting signal was read on a ViewLux plate reader.
as §1
• 4. Prepare 10 mM stock of compounds from solid in 100% DMSO. • 5. Set up an 11-point serial dilution (1:4 dilution, top concentration 10 mM) in 100% DMSO for each test compound in a 384 well plate leaving columns 6 and 18 for DMSO controls. • 6. Dispense 10 nL of compound from the dilution plate into reaction plates (Corning, 384-well polystyrene NBS, Cat#3673). Part B. Reagent Preparation Prepare the following solutions: • 7. 1× Base Buffer, 50 mM Tris-HCl, pH 8, 2 mM MgCl2: Per 1 L of base buffer, combine 1 M Tris-HCl, pH 8 (50 mL), 1 M MgCl2 (2 mL), and distilled water (948 mL). • 8. 1× Assay Buffer: Per 10 mL of 1× Assay Buffer, combine 1× Base Buffer (9.96 mL), 1 M DTT (40 uL), and 10% Tween-20 (1 uL) to provide a final concentration of 50 mM Tris-HCl, pH 8, 2 mM MgCl2, 4 mM DTT, 0.001% Tween-20. • 9. 2× Enzyme Solution: Per 10 mL of 2× Enzyme Solution, combine 1× Assay Buffer (9.99 mL) and 3.24 uM EZH2 5 member complex (6.17 uL) to provide a final enzyme concentration of 1 nM.
10. […] Read plates • 2. Read the assay plates on the Viewlux Plate Reader utilizing the 613 nm emission filter or clear filter (300 s exposure). […]
as §2

Each structure is given as a SMILES string.

T1 sequence (Q15910 whole entry): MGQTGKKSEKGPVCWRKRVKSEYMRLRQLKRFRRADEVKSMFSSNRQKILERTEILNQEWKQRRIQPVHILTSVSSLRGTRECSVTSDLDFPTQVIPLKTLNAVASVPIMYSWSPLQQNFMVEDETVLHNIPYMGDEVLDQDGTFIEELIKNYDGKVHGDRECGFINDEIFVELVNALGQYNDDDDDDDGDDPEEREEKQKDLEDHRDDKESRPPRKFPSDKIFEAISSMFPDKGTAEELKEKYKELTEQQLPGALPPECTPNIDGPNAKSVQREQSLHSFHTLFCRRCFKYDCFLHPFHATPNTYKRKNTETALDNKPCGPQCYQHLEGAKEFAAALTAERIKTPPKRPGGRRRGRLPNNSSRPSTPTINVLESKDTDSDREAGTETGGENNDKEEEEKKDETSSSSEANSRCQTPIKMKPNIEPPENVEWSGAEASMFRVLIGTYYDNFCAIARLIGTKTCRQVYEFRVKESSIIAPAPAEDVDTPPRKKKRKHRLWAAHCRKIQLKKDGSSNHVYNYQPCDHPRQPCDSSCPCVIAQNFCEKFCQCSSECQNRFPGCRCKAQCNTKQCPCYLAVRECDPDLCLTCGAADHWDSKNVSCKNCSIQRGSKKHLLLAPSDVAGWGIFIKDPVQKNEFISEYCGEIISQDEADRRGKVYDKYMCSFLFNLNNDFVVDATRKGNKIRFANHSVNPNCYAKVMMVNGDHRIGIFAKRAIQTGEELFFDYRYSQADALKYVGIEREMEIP
T1 sequence (O75530 whole entry partner): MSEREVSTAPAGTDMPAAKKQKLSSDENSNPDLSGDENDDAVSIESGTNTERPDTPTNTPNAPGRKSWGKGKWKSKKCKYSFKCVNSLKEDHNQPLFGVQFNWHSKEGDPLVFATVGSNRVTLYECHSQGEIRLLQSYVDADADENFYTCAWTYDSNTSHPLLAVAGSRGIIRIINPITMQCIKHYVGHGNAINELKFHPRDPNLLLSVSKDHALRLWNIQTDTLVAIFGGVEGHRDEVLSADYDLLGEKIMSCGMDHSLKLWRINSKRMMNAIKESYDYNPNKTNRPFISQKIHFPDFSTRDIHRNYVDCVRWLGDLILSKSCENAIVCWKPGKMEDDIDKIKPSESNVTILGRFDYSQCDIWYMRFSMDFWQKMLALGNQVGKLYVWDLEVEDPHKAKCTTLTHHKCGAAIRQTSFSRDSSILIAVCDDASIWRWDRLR
T1 sequence (Q15022 whole entry partner): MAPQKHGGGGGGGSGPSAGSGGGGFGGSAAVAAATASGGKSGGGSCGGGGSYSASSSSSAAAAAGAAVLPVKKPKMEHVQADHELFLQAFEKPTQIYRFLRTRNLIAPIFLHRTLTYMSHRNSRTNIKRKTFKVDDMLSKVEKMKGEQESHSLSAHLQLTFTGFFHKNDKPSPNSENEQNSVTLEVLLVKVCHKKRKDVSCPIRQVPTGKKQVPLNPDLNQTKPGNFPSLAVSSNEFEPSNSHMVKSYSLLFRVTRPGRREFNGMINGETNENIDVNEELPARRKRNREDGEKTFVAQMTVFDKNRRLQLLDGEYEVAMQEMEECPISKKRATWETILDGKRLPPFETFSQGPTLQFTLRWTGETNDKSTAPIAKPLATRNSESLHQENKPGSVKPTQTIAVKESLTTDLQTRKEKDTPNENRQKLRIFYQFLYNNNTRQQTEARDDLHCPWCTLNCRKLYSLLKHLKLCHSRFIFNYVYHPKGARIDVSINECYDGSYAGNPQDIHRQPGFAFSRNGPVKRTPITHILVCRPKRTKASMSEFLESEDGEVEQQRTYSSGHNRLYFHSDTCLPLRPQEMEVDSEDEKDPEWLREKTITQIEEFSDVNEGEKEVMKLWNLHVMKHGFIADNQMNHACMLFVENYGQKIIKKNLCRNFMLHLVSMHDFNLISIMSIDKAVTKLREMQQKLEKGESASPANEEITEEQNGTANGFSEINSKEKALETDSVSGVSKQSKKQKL
T1 sequence (Q09028 whole entry partner): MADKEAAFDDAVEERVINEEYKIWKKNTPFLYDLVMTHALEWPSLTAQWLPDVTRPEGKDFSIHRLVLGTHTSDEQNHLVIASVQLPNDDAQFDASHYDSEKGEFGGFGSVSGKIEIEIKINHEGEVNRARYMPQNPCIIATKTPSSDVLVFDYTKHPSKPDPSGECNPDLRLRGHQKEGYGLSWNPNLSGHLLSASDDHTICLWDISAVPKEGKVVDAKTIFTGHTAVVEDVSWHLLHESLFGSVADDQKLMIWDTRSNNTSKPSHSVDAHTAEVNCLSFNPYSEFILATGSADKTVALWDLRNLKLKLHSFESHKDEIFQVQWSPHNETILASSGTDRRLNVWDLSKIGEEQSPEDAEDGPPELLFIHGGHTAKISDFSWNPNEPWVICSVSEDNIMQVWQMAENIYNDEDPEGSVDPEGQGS
T1 sequence (Q6ZN18 whole entry partner): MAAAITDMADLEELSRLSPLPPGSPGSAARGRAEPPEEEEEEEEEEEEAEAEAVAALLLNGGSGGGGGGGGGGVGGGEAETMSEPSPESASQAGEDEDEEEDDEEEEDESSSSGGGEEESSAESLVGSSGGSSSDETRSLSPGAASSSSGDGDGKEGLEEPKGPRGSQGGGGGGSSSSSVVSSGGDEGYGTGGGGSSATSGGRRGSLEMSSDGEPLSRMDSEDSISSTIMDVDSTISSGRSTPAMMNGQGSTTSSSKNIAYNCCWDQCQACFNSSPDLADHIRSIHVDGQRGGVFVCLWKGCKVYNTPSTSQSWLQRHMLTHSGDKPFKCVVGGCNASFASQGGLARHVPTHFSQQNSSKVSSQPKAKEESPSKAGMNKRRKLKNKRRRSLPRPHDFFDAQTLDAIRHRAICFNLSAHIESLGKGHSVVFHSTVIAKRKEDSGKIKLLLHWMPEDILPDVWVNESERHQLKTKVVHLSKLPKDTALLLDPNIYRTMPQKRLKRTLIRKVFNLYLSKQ

In test [1], `CCN(c1scc(C(=O)NCc2c(C)[nH]c(C)cc2=O)c1C)C1CCOCC1` [Example 1, N-((2,6-dimethyl-4-oxo-1,4-dihydropyridin-3-yl)methyl)-5-(ethyl(tetrahydro-2H-pyran-4-yl)amino)-4-methylthiophene-3-carboxamide] showed a concentration for half-maximal inhibition (IC50) of 316 nM.
As for `CCN(c1scc(C(=O)NCc2c(C)[nH]c(C)cc2=O)c1C)[C@H]1CC[C@H](N(C)C)CC1` [Example 2, N-((2,6-dimethyl-4-oxo-1,4-dihydropyridin-3-yl)methyl)-5-(((trans)-4-(dimethylamino)cyclohexyl)(ethyl)amino)-4-methylthiophene-3-carboxamide], the IC50 came to 32 nM in test [1] and 100 nM in test [2].
On to `CCN(c1scc(C(=O)NCc2c(C)[nH]c(C)c(N)c2=O)c1C)[C@H]1CC[C@H](N(C)C)CC1` [Example 3, N-((5-amino-2,6-dimethyl-4-oxo-1,4-dihydropyridin-3-yl)methyl)-5-(((trans)-4-(dimethylamino)cyclohexyl)(ethyl)amino)-4-methylthiophene-3-carboxamide], for which the IC50 came out at 32 nM in test [1] and 16 nM in test [2].
Consider `CCN(c1sc(Br)c(C(=O)NCc2c(C)[nH]c(C)cc2=O)c1C)[C@H]1CC[C@H](N(C)C)CC1` [Example 4, 2-Bromo-N-((2,6-dimethyl-4-oxo-1,4-dihydropyridin-3-yl)methyl)-5-(((trans)-4-(dimethylamino)cyclohexyl)(ethyl)amino)-4-methylthiophene-3-carboxamide], for which, in test [2], 160 nM corresponded to half-maximal inhibition (IC50).
